Laboratory results as given in the NIST ThermoML archive (doi:10.1016/j.jct.2006.03.007).

Assay: molar heat capacity at constant pressure
Conditions: 101.33 kPa, Crystal

O=C(O)c1cccc(C(=O)O)n1 [pyridine-2,6-dicarboxylic acid]
Conditions	molar heat capacity at constant pressure [J/K/mol]
223.94 K	109.74
225.95 K	111.1
227.91 K	112.43
229.9 K	113.8
231.78 K	115.1
233.73 K	116.46
235.64 K	117.81
237.61 K	119.2
239.52 K	120.56
241.4 K	121.91
243.27 K	123.26
245.17 K	124.63
247.09 K	126.04
248.98 K	127.43
250.89 K	128.84
252.77 K	130.24
254.65 K	131.65
256.51 K	133.04
258.38 K	134.45
260.23 K	135.86
262.08 K	137.27
263.92 K	138.68
265.74 K	140.08
267.58 K	141.5
269.4 K	142.91
271.2 K	144.31
273 K	145.72
274.79 K	147.12
276.55 K	148.51
278.32 K	149.91
280.09 K	151.31
281.85 K	152.71
283.59 K	154.09
285.32 K	155.48
287.04 K	156.85
288.74 K	158.22
290.44 K	159.59
292.1 K	160.93
293.75 K	162.27
295.39 K	163.6
297.06 K	164.95
298.72 K	166.31
300.37 K	167.65
302.01 K	168.99
303.64 K	170.32
305.27 K	171.65
306.88 K	172.98
310.09 K	175.62
311.68 K	176.93
313.25 K	178.21
314.76 K	179.47
316.65 K	181.03
319.26 K	183.18
322.04 K	185.48
324.78 K	187.75
327.48 K	189.98
330.16 K	192.2
332.81 K	194.4
335.45 K	196.59
338.09 K	198.77
340.74 K	200.97
343.44 K	203.2
346.14 K	205.43
348.74 K	207.58
351.31 K	209.7
353.85 K	211.78
356.38 K	213.86
358.86 K	215.9
361.34 K	217.92
363.79 K	219.91
366.21 K	221.88
368.6 K	223.82
370.97 K	225.73
375.64 K	229.5
378 K	231.38
